{"source": "patent US20250074976A1", "about": "“PHARMACEUTICAL COMPOSITION FOR TREATING PERIPHERAL NERVE INJURY” (NATIONAL UNIVERSITY CORPORATION HOKKAIDO UNIVERSITY, priority 2021, published 2025)", "type_in_all_cases": "in vivo, Lewis rats", "key": {"[1]": {"test_system": "sciatic nerve crush injury", "assay": "Collagen sheet covering 15 mm to 25 mm distal to injury site, evaluation 12 hours after crush injury (NETs, macrophages)", "details": "n=3; for NETs in the epineurium (CitH3 positive area) / macrophages accumulated in the nerve parenchyma: 20 mm distal", "source_text": "(§1) Anesthetized Lewis rats (males, 12-16 weeks old) or C57BL/6 mice (males, 8-10 weeks old) were placed in the prone position and a longitudinal skin incision was made from the left buttock to the distal left thigh to expose the entire sciatic nerve. Crush injuries were created with micro mosquito forceps (Fine Science Tools, No. 13010-12). An 8-0 Nylon thread was applied to the epineurium at the crush injury for marking, and the incision was closed.\n(§2) After a predetermined time had elapsed from the creation of the crush injury, the right atrial appendage of the animals was incised under anesthesia to release the blood, and a PBS solution was poured into the left heart to remove the blood. After transcardial perfusion and fixation with 4% paraformaldehyde-added PBS, the sciatic nerve was collected.\n(§3) Sciatic nerves collected from animals were fixed in 4% PFA at 4° C. overnight and then transferred to 30% Sucrose/PB solution and allowed to stand for 24 hours or longer. Longitudinal sciatic nerve sections of 10 μm thickness, or in the case of mice, transverse sections at predetermined locations, were prepared using a cryostat. The sections were blocked in TBS (pH 8.4) containing 5% Normal horse serum (Thermo Fisher Scientific, Waltham, MA) and 0.25% Triton X-100 (Sigma-Aldrich, St. Louis, MO) for 1 hour, and then immersed in TBS containing primary antibody at 4° C. overnight and in TBS containing secondary antibody at room temperature for 1 hour for staining. After washing with TBS, counterstaining was performed with DAPI. After staining, tissues were observed using a fluorescence microscope BZ-X710 (KEYENCE). Image analysis was performed using Image J (Schneider et al., 2012).\nCrush injuries were created in the sciatic nerve of rats. Ten hours after injury creation, the sciatic nerves from 15 mm to 25 mm distal to the injury site were wrapped with the collagen-based artificial skin PELNAC (registered trademark) (Smith & Nephew; hereafter also referred to as sheets or collagen sheets) impregnated with either 50 μl of PBS containing 0.3 mg of the PAD4 inhibitor Cl-amidine (Cayman CHEMICAL #10599), 50 μl of PBS containing 200 U of DNase I (Nippon Gene #314-08071), or 50 μl of PBS (control). The sheets were suture-fixed with 8-0 nylon and placed for 2 hours (n=3 in each group). Twelve hours after injury creation, the sciatic nerves were collected, their longitudinal sections at 20 mm distal to the injury site were prepared and immunohistochemical staining for CitH3, Ly-6G, and CD68 was performed. The epineural area was observed and the percentage of area stained for CitH3 in the total area of the field of view was calculated. The number of macrophages per unit area of the nerve parenchyma was quantified.\nCrush injuries were created in the sciatic nerve of rats. Ten hours after injury creation, the sciatic nerves from 15 mm to 25 mm distal to the injury site were wrapped with collagen sheets impregnated with either 50 μl of 1% DMSO containing 500 μg of the MIF inhibitor iso-1 (Abcam, Cat ab142140), or 50 μl of 1% DMSO. The sheets were suture-fixed with 8-0 nylon and placed for 2 hours (n=3 in each group). Twelve hours after injury creation, the sciatic nerves were collected, their longitudinal sections were prepared, and immunohistochemical staining for CitH3, Ly-6G, and CD68 was performed. The epineural area was observed and the percentage of area stained for CitH3 in the total area of the field of view was calculated. The number of macrophages per unit area of the nerve parenchyma was quantified.\nCrush injuries were created in the sciatic nerve of rats. Ten hours after injury creation, the sciatic nerves from 15 mm to 25 mm distal to the injury site were wrapped with collagen sheets impregnated with either 50 μl of PBS containing 500 μg of the CXCR4 inhibitor AMD3100 (Abcam #10599), or 50 μl of PBS. The sheets were suture-fixed with 8-0 nylon and placed for 2 hours (n=3 in each group)."}, "[2]": {"test_system": "sciatic nerve crush injury", "assay": "Collagen sheet covering 5 mm to 25 mm distal to injury site, evaluation 7 days after crush injury (macrophages, axonal regeneration)", "details": "placed 2 hours, 7 days after injury, vs control sheet", "source_text": "as §1, §2, §3\n(§4) In β3 tubulin-immunostained images of longitudinal sciatic nerve sections, vertical lines were set at 5 mm intervals in the direction distal to the injury site, and the number of axons crossing each line was divided by the length of the line to calculate axon density. The axonal regeneration percentage was calculated by dividing the axon density at each location by the axon density at uninjured site 1.5 mm proximal to the injury site.\n(§5) Crush injuries were created in the sciatic nerve of rats.\nCrush injuries were created in the sciatic nerve of rats. […] The sheets were removed 12 hours after injury creation and the incisions were closed after washing.\nas §5"}, "[3]": {"test_system": "sciatic nerve crush injury", "assay": "Collagen sheet covering 5 mm to 15 mm distal to injury site, evaluation 7 days after crush injury (axonal regeneration)", "details": "sheet with 500 μg inhibitor in 50 μl 1% DMSO, placed 2 hours; 7 days after injury; vs control sheet; n=1; FIG. 37", "source_text": "as §1, with “Crush injuries were created with micro mosquito forceps (Fine Science Tools, No. 13010-12).” left out\nas §2\nas §3, with “(KEYENCE).” for “(KEYENCE). Image analysis was performed using Image J (Schneider et al., 2012).”\nas §4\nCrush injuries were created in the sciatic nerve of rats. […] […] Seven days after injury creation, the sciatic nerves were collected, and immunohistochemical staining of their longitudinal sections was performed to calculate the axonal regeneration percentage."}}}
{"smiles": "O=C(O)CC1CC(c2ccc(O)cc2)=NO1", "note": "(racemic) [iso-1, (S,R)-3-(4-Hydroxyphenyl)-4,5-dihydro-5-isoxazole acetic acid]", "values": [{"measurement": "NETs in the epineurium at 20 mm distal to the injury site (CitH3 positive area)", "setting": "[1]; sheet with 500 μg iso-1 in 50 μl 1% DMSO, placed 2 hours, 12 hours after injury, FIG. 32", "value": "only a small amount of NETs were detected"}, {"measurement": "macrophage accumulation at 5 mm distal to the injury site (no sheet treatment there)", "setting": "[1]; sheet with 500 μg iso-1 in 50 μl 1% DMSO, placed 2 hours, 12 hours after injury, vs control sheet, FIG. 30", "value": "no difference in macrophage accumulation"}, {"measurement": "macrophages accumulated in the nerve parenchyma at 20 mm distal to the injury site (sheet-treated)", "setting": "[1]; sheet with 500 μg iso-1 in 50 μl 1% DMSO, placed 2 hours, 12 hours after injury, vs control sheet, FIG. 31", "value": "more macrophages accumulated in the nerve parenchyma"}, {"measurement": "axonal regeneration percentage", "setting": "[2]; sheet with 1000 μg iso-1 in 100 μl 1% DMSO, over almost the entire evaluated regions, n=3, FIG. 35", "value": "higher axonal regeneration percentage"}, {"measurement": "accumulation of macrophages in the nerve parenchyma (CD68; M2 macrophages CD163)", "setting": "[2]; sheet with 1000 μg iso-1 in 100 μl 1% DMSO, over the entire evaluated regions, n=3, FIG. 33, 34", "value": "greater accumulation of macrophages in the nerve parenchyma"}, {"measurement": "axonal regeneration percentage", "setting": "[3]", "value": "higher axonal regeneration percentage"}, {"measurement": "longest axon length", "setting": "[3]", "value": "greater longest axon length"}]}
{"smiles": "N=C(CCl)NCCC[C@H](NC(=O)c1ccccc1)C(N)=O.O=C(O)C(F)(F)F", "note": "[Cl-amidine, N^2-Benzoyl-N^5-(1-imino-2-chloroethyl)-L-ornithinamide trifluoroacetic acid]", "values": [{"measurement": "NETs in the epineurium (CitH3 positive area)", "setting": "[1]; sheet with 0.3 mg Cl-amidine or 200 U DNase I in 50 μl PBS, placed 2 hours from 10 hours after injury, 12 hours, vs control sheet (large amount), FIG. 25", "value": "only a small amount of NETs were detected"}, {"measurement": "macrophages accumulated in the nerve parenchyma", "setting": "[1]; sheet with 0.3 mg Cl-amidine or 200 U DNase I, placed 2 hours, 12 hours, CD68, vs control sheet, FIG. 26", "value": "more macrophages accumulated in the nerve parenchyma"}]}
{"smiles": "c1cc(CN2CCCNCCNCCCNCC2)ccc1CN1CCCNCCNCCCNCC1", "note": "[AMD3100, 1,4-Bis[(1,4,8,11-tetraazacyclotetradecan-1-yl)methyl]benzene]", "values": [{"measurement": "NETs in the epineurium (CitH3 positive area)", "setting": "[1]; sheet with 500 μg AMD3100 in 50 μl PBS, placed 2 hours, 12 hours after injury, FIG. 39", "value": "only a small amount of NETs were detected"}, {"measurement": "macrophages accumulated in the nerve parenchyma", "setting": "[1]; sheet with 500 μg AMD3100 in 50 μl PBS, placed 2 hours, 12 hours after injury, vs control sheet, FIG. 40", "value": "more macrophages accumulated in the nerve parenchyma"}, {"measurement": "macrophages accumulated in the nerve parenchyma", "setting": "[2]; sheet with 1 mg AMD3100 in 100 μl PBS, over almost the entire evaluated regions, n=1, FIG. 42", "value": "more macrophages accumulated in the nerve parenchyma"}, {"measurement": "axonal regeneration percentage", "setting": "[2]; sheet with 1 mg AMD3100 in 100 μl PBS, n=1, FIG. 41", "value": "higher axonal regeneration percentage"}]}
{"smiles": "O=C(CC1CC(c2ccc(F)cc2F)=NO1)N1CCOCC1", "note": "(stereo not drawn) [CPSI-1306]", "values": [{"measurement": "axonal regeneration percentage", "setting": "[3]", "value": "higher axonal regeneration percentage"}, {"measurement": "longest axon length", "setting": "[3]", "value": "greater longest axon length"}]}
